Columns and labels:
[1] = test system: Veratrum californicum embryos; test: Embryogenic callus induction from mature embryos (% of embryogenesis); type: cell-based; settings: medium 502; data from 5 replicates
[2] = test system: suspension line B; test: Growth optimization of the suspension cell line B; type: cell-based, Veratrum californicum; settings: AA medium, 4 mg/l
Description: Growth of suspension line B on L2-medium with 2,4-D (2.5 mg/l) was further optimized. About 3 g (fw) of cells were transferred to an Erlenmeyer flask containing 50 ml liquid AA medium (with 2,4-D and NAA at levels of 2, 4 and 7 mg/l or without hormones), and incubated in the light (light intensity about 30-40 […] Osram cool white/Osram fluora, 1:1 on watt basis) on a rotary shaker (130 rpm) at 25° C. The volume of the liquid medium was added up to 100 ml after the second subculture. The suspensions were sub-cultured at three weeks intervals by replacing about half of the old culture with an equal volume of fresh medium.

[3] = test system: Veratrum californicum embryos; test: Embryogenic callus induction from mature embryos (% of embryogenesis); type: cell-based
Description: (§1) Seeds of Veratrum californicum Durand were peeled, rinsed with 94% ethanol and surface sterilized with 1% (v/v) sodium hypochlorite supplemented with a few drops of Tween20 for 10 minutes, and finally rinsed three times with sterile water. Seeds were allowed to germinate for 2 days at 22° C. in the dark on moist filter paper. Embryos were excised and cultured on MS medium (11) solidified with gelrite (3% w/v) and supplemented with 1 mg/l kinetin and 1 mg/l NAA in the dark at 22° C. Produced calli were subcultured to fresh plates in two to three weeks intervals. After four months of culture calli were transferred to L2-medium (12) solidified with gelrite (3% w/v) and supplemented with 2.5 mg/l 2,4-D and were subsequentially subcultured to fresh plates at one month intervals. Embryogenic callus cultures from isolated V. californicum embryos were induced by the following media: Basal media MS (11), R2M (13), L2 (12), modified MS medium (mMS, consisting of MS basic salts and vitamins, 146 mg/l glutamine, 200 mg/l casein hydrolysate) and AA (14) supplemented with different hormones (picloram, NAA, 2,4-D, dicamba) at three levels (2, 4 and 7 mg/l) all solidified with gelrite (3% w/v). The cultures were kept in the dark, at 25° C. and embryogenic calli were subcultured at one month intervals.
Frequencies of embryos producing embryogenic calli and frequencies of regenerated green and albino plants were recorded. Oxidative browning percentages of embryos were calculated. Completely randomized designs (CRD) were used in the experiments. Each Petri-dish with 20 embryos was considered an experimental unit and each treatment contained five replicates. Data analyses with two treatment levels were carried out by t-test, and with more than two treatment levels by the ANOVA procedure. Multi-range comparisons were performed by the LSD test.

[4] = test system: sheep; settings: ewes consuming Veratrum during early pregnancy; cited from earlier work
[5] = test system: Sonic hedgehog signal transduction; settings: cited from earlier work
[6] = test system: Veratrum californicum embryos; test: Phenolic exudation / oxidative browning during embryo culture; type: cell-based; settings: mMS medium containing picloram
Description: as §1, with “The cultures were kept in the dark, at 25° C. and embryogenic calli were subcultured at one month intervals.” left out
Frequencies of embryos producing embryogenic calli and frequencies of regenerated green and albino plants were recorded. Oxidative browning percentages of embryos were calculated. […]

[7] = test system: suspension lines A, B and C; test: Cryopreservation of the cell suspension lines A, B and C; type: cell-based, Veratrum californicum; settings: 5% (v/v), after osmotic dehydration
Description: The suspension lines A, B and C were cryopreserved by using a Kryo10 device (Planer Biomed). The suspensions were subcultured 4 to 5 days prior to the start of the cryopreservation experiment. A dehydration procedure as follows was applied: I) Sugar alcohol concentration of the suspension was adjusted to 0.2 M by adding five times small aliquots of 4 M sorbitol during a period of 30 minutes. After sorbitol additions, the suspensions were incubated under normal growth conditions for 24 hours (in the dark, 25° C., on a rotary shaker (90 rpm)). II) Sugar alcohol concentration was adjusted to 0.4 M by 4 M sorbitol and incubations were carried out as in step I). The dehydrated suspensions were transferred to ice and DMSO was added to reach 5% (v/v) concentration. Cell:medium ratio was adjusted to 1:2 and suspensions were packed into ampulles. Protectant-treated suspensions were kept on ice for a period of 100 minutes. A freezing protocol as follows was applied: I) A rate of 10° C./min to reach 0° C. was followed by II) incubation at 0° C. for 20 minutes. The freezing was finalized by using III) a rate of 1° C./min to reach −40° C. and then IV) samples were immersed in liquid nitrogen. Thawing of cryopreserved samples was carried out by immersing the suspension ampulles straight from liquid nitrogen to a 40° C. water bath for 2 minutes. […] Cell division and growth of the cultures were monitored.

[8] = test system: Veratrum californicum plant suspension cell lines; test: Elicitation of steroid alkaloid production in plant suspension cell lines; type: cell-based
Description: 100 μl 0.5% SDS solution and 50 μl 25% NH4OH was added to 100 mg FW frozen cell powder. After mixing 1 ml toluene was added and the solution was extracted for 10 min in an ultrasonic bath. Following centrifugation the organic layer was collected and the sample residue was twice re-extracted with another 1 ml toluene. The organic phases were combined and the solvent was evaporated to dryness. The residue was then quantitatively transferred to a GC vial and re-dissolved in 80 μl CH2Cl2. An aliquot was directly injected into the GC.
GC separation was performed using an Agilent 6890 system and was monitored with an Agilent 5973 Network MS Quadropole. The selected ion mode function was applied to record the characteristic molecular ions (cyclopamine: 124, 396; jervine: 110, 124). Within a set of samples the response values for the specific ions were used to compare relative levels of alkaloids. A mixture of commercially available reference compounds (cyclopamine and jervine) was routinely analyzed for comparison of retention times and fragmentation.

[9] = medium AA, data from 5 replicates
[10] = medium MS, data from 5 replicates
[11] = medium R2M, data from 5 replicates
[12] = medium mMS, data from 5 replicates
[13] = growth regulator 2 mg/l, average over mMS, R2M, AA
[14] = growth regulator 2 mg/l, medium AA
[15] = growth regulator 2 mg/l, medium R2M
[16] = growth regulator 2 mg/l, medium mMS
[17] = growth regulator 4 mg/l, average over mMS, R2M, AA
[18] = growth regulator 4 mg/l, medium AA
[19] = growth regulator 4 mg/l, medium R2M
[20] = growth regulator 4 mg/l, medium mMS
[21] = growth regulator 7 mg/l, average over mMS, R2M, AA
[22] = growth regulator 7 mg/l, medium AA
[23] = growth regulator 7 mg/l, medium R2M
[24] = growth regulator 7 mg/l, medium mMS

O=C(O)COc1ccc(Cl)cc1Cl [2,4-D]
% of embryogenesis [1]: 53.41% | growth of the suspension line B [2]: improved the growth | % of embryogenesis, Average ([3]; average over the five media): 52.33c % | % of embryogenesis [3, 9]: 43.43% | % of embryogenesis [3, 10]: 50.52% | % of embryogenesis [3, 11]: 58.85% | % of embryogenesis [3, 12]: 55.32%

COc1c(Cl)ccc(Cl)c1C(=O)O [Dicamba, dicamba]
% of embryogenesis [1]: 55.61% | % of embryogenesis, Average ([3]; average over the five media): 55.44bc % | % of embryogenesis [3, 9]: 51.24% | % of embryogenesis [3, 10]: 50.90% | % of embryogenesis [3, 11]: 58.67% | % of embryogenesis [3, 12]: 60.79%

CC1=C2C(=O)[C@H]3[C@@H](CC=C4C[C@@H](O)CC[C@@]43C)[C@@H]2CC[C@]12O[C@@H]1C[C@H](C)CN[C@H]1[C@H]2C [jervine]
teratogenicity [4]: responsible teratogens

O=C(O)Cc1cccc2ccccc12 [NAA, 1-naphthaleneacetic acid]
% of embryogenesis [1]: 64.98% | growth of the suspension line B [2]: improved the growth | % of embryogenesis, Average ([3]; average over the five media): 67.70a % | % of embryogenesis, Average [3, 13]: 59.35b % | % of embryogenesis [3, 14]: 48.95% | % of embryogenesis [3, 15]: 63.75% | % of embryogenesis [3, 16]: 65.35% | % of embryogenesis, Average [3, 17]: 70.74a % | % of embryogenesis [3, 18]: 64.21% | % of embryogenesis [3, 19]: 74.32% | % of embryogenesis [3, 20]: 73.67% | % of embryogenesis, Average [3, 21]: 72.15a % | % of embryogenesis [3, 22]: 68.06% | % of embryogenesis [3, 23]: 73.01% | % of embryogenesis [3, 24]: 75.37% | % of embryogenesis [3, 9]: 62.04% | % of embryogenesis [3, 10]: 62.62% | % of embryogenesis [3, 11]: 73.95% | % of embryogenesis [3, 12]: 74.93%

CC1=C2C[C@H]3[C@@H](CC=C4C[C@@H](O)CC[C@@]43C)[C@@H]2CC[C@]12O[C@@H]1C[C@H](C)CN[C@H]1[C@H]2C [cyclopamine]
teratogenicity [4]: responsible teratogens | effect on Sonic hedgehog signal transduction [5]: selectively blocks Sonic hedgehog signal transduction

Nc1c(Cl)c(Cl)nc(C(=O)O)c1Cl [Picloram, picloram]
% of embryogenesis [1]: 68.32% | percentage of embryos producing phenolic exudates [6]: 18.9% | % of embryogenesis, Average ([3]; average over the five media): 70.82a % | % of embryogenesis, Average [3, 13]: 63.24B % | % of embryogenesis [3, 14]: 51.43% | % of embryogenesis [3, 15]: 68.53% | % of embryogenesis [3, 16]: 69.76% | % of embryogenesis, Average [3, 17]: 72.96A % | % of embryogenesis [3, 18]: 62.59% | % of embryogenesis [3, 19]: 75.73% | % of embryogenesis [3, 20]: 80.57% | % of embryogenesis, Average [3, 21]: 72.50A % | % of embryogenesis [3, 22]: 59.97% | % of embryogenesis [3, 23]: 76.07% | % of embryogenesis [3, 24]: 81.46% | % of embryogenesis [3, 9]: 59.75% | % of embryogenesis [3, 10]: 69.32% | % of embryogenesis [3, 11]: 75.40% | % of embryogenesis [3, 12]: 81.33%

C[S+](C)[O-] [DMSO]
cryoprotectant effect [7]: sufficient as a cryoprotectant

CC/C=C\CC1C(=O)CCC1CC(=O)OC (centres unmarked) [methyl-jasmonate, methyl jasmonate]
production of cyclopamine and jervine upon elicitation [8]: showed the production of cyclopamine and jervine

Source: patent US20090305338A1, “Plant cell lines established from the medicinal plant veratrum californicum” (priority 2006, published 2009)
